Here are results for 19 compounds from patent US10875855B2 (priority 2011, dated 2020).

Assay [1] has as its system influenza A virus (A/PR/8/34). The experiment in a line: MDCK cytopathic effect (CPE) cell protection assay, ATP detection. The format is cell-based. Background: Damage to the host cells serves as the signal in cytopathic effect assays.
The subject of assay [2] is influenza A virus (A/PR/8/34). The experiment in a line: microbe, parasite or virus in culture. The assay is classed as cell-based.
Where [3] appears, read: Influenza A virus, PR/8, MDCK, 72 h, Table 1, MDCK cells, A/PR/8/34, 72 hours, 50% cell protection, mean all, class symbol, read-out: MDCK IC50.
Where [4] appears, read: Influenza A virus, PR/8, Table 1, mean all, class symbol, read-out: bDNA EC99.
Setting [5] is: Influenza A virus, PR/8, Table 1, viral RNA 50% of control wells, mean all, class symbol, read-out: bDNA EC50.
Where [6] appears, read: Table 1, MDCK cells, A/PR/8/34, 72 hours, 50% cell protection, mean all, class symbol, read-out: MDCK IC50.
Where [7] appears, read: Table 1, viral RNA 50% of control wells, mean all, class symbol, read-out: bDNA EC50.

In general, IC50 refers to the concentration that gives 50% inhibition. Usually EC99 stands for the concentration needed for an effect of 99%. The term EC50 denotes the concentration that produces a half-maximal response.

Read-outs that look alike come from different tables or passages of the source. A value given as a limit tells only on which side of the number the result lay.

Take `CC(C)(C)[C@@H](CO)Nc1nc(-c2c[nH]c3ncc(Cl)cc23)ncc1F` [Compound 49, (S)-2-((2-(5-chloro-1H-pyrrolo[2,3-b]pyridin-3-yl)-5-fluoropyrimidin-4-yl)amino)-3,3-dimethylbutan-1-ol]: the IC50 in assay [1] (setting [3]) was under 300 nM. Further, the EC99 in assay [2] (setting [4]) was 0.3 to 3.3 µM. The EC50 in assay [2] (setting [5]) was under 300 nM.

Consider `CC(C)(C)C(Nc1nc(-c2c[nH]c3ncc(F)cc23)ncc1F)C1CC1C(=O)O` (stereo not shown) [Compound 50, 2-(1-((5-fluoro-2-(5-fluoro-1H-pyrrolo[2,3-b]pyridin-3-yl)pyrimidin-4-yl)amino)-2,2-dimethylpropyl)cyclopropanecarboxylic acid], for which the IC50 in assay [1] (setting [3]) is under 300 nM. Besides, the 99% effect concentration (EC99) in assay [2] (setting [4]) is 0.3 to 3.3 µM. Further, the EC50 in assay [2] (setting [5]) is under 300 nM.

As for `CC(C)(C)N(CC(=O)O)Nc1nc(-c2c[nH]c3ncc(F)cc23)ncc1F` [Compound 53, 2-(1-(tert-butyl)-2-(5-fluoro-2-(5-fluoro-1H-pyrrolo[2,3-b]pyridin-3-yl)pyrimidin-4-yl)hydrazinyl)acetic acid], the IC50 in assay [1] (setting [3]) is under 300 nM. For the same compound, in assay [2] (setting [4]), the concentration for an effect of 99% (EC99) was in the range of 0.3 to 3.3 µM. Also, the EC50 in assay [2] (setting [5]) was under 300 nM.

As for `CC(C)(C)N(CC(=O)O)Nc1nc(-c2c[nH]c3ncc(C(F)(F)F)cc23)ncc1F` [Compound 54, 2-(1-(tert-butyl)-2-(5-fluoro-2-(5-(trifluoromethyl)-1H-pyrrolo[2,3-b]pyridin-3-yl)pyrimidin-4-yl)hydrazinyl)acetic acid], in assay [1] (setting [3]), the IC50 was under 300 nM. For the same compound, the EC99 in assay [2] (setting [4]) fell in the range of 0.3 to 3.3 µM. Further, the EC50 in assay [2] (setting [5]) is under 300 nM.

Consider `CC(C)(C)N(CC(=O)O)Nc1nc(-c2c[nH]c3ncc(Cl)cc23)ncc1F` [Compound 56, 2-(1-(tert-butyl)-2-(2-(5-chloro-1H-pyrrolo[2,3-b]pyridin-3-yl)-5-fluoropyrimidin-4-yl)hydrazinyl)acetic acid], for which the IC50 in assay [1] (setting [3]) is under 300 nM. The EC99 in assay [2] (setting [4]) is under 0.3 µM. For the same compound, the EC50 in assay [2] (setting [5]) was under 300 nM.

On to `CC(C)(C)[C@@H](CS(=O)(=O)NCC(F)F)Nc1nc(-c2c[nH]c3ncc(F)cc23)ncc1F` [Compound 57, (S)—N-(2,2-difluoroethyl)-2-(5-fluoro-2-(5-fluoro-H-pyrrolo[2,3-b]pyridin-3-yl)pyrimidin-4-ylamino)-3,3-dimethylbutane-1-sulfonamide], for which the IC50 in assay [1] (setting [3]) is under 300 nM. For the same compound, the EC99 in assay [2] (setting [4]) is under 0.3 µM. Further, the EC50 in assay [2] (setting [5]) is under 300 nM.

On to `CC(C)(C)[C@@H](CS(=O)(=O)NCC(F)(F)F)Nc1nc(-c2c[nH]c3ncc(F)cc23)ncc1F` [Compound 58, (S)-2-(5-fluoro-2-(5-fluoro-1H-pyrrolo[2,3-b]pyridin-3-yl)pyrimidin-4-ylamino)-3,3-dimethyl-N-(2,2,2-trifluoroethyl)butane-1-sulfonamide], for which the IC50 in assay [1] (setting [3]) is under 300 nM. For the same compound, the EC99 in assay [2] (setting [4]) was under 0.3 µM. Further, in assay [2] (setting [5]), the EC50 is under 300 nM.

With `CC(C)(C)[C@@H](/C=C/C(=O)O)Nc1nc(-c2c[nH]c3ncc(F)cc23)ncc1F` [Compound 59, (R,E)-4-((5-fluoro-2-(5-fluoro-1H-pyrrolo[2,3-b]pyridin-3-yl)pyrimidin-4-yl)amino)-5,5-dimethylhex-2-enoic acid], the IC50 in assay [1] (setting [3]) is under 300 nM. In addition, in assay [2] (setting [4]), the concentration for an effect of 99% (EC99) lay within 0.3 to 3.3 µM. The EC50 in assay [2] (setting [5]) was under 300 nM.

For `CC(C)(C)[C@@H](CS(=O)(=O)CC(=O)O)Nc1nc(-c2c[nH]c3ncc(F)cc23)ncc1F` [Compound 60, (S)-2-(2-(5-fluoro-2-(5-fluoro-1H-pyrrolo[2,3-b]pyridin-3-yl)pyrimidin-4-ylamino)-3,3-dimethylbutylsulfonyl)ethanoic acid], the IC50 in assay [1] (setting [3]) was under 300 nM. In addition, in assay [2] (setting [4]), the EC99 was over 3.3 µM. The EC50 in assay [2] (setting [5]) is 300 to 3300 nM.

For `CC(C)(C)[C@@H](CS(=O)(=O)CC(=O)O)Nc1nc(-c2c[nH]c3ncc(Cl)cc23)ncc1F` [Compound 61, (S)-2-(2-(2-(5-chloro-1H-pyrrolo[2,3-b]pyridin-3-yl)-5-fluoropyrimidin-4-ylamino)-3,3-dimethylbutylsulfonyl)ethanoic acid], the IC50 in assay [1] (setting [3]) is under 300 nM. In addition, the 99% effect concentration (EC99) in assay [2] (setting [4]) lay in the range of 0.3 to 3.3 µM. Besides, the EC50 in assay [2] (setting [5]) was under 300 nM.

For the compound `CC1(C(CC(=O)O)Nc2nc(-c3c[nH]c4ncc(F)cc34)ncc2F)CCC1` (stereo not shown) [Compound 63], the IC50 in assay [1] (setting [3]) was under 300 nM. Moreover, in assay [2] (setting [4]), the EC99 was under 0.3 µM. The EC50 in assay [2] (setting [5]) was under 300 nM.

On to `CC(C)(C)[C@@H](CC(O)C(F)(F)F)Nc1nc(-c2c[nH]c3ncc(F)cc23)ncc1F` (stereo partly drawn) [Compound 66, (4R)-1,1,1-trifluoro-4-((5-fluoro-2-(5-fluoro-1H-pyrrolo[2,3-b]pyridin-3-yl)pyrimidin-4-yl)amino)-5,5-dimethylhexan-2-ol], for which, in assay [1] (setting [3]), the concentration for half-maximal inhibition (IC50) was under 300 nM. Besides, in assay [2] (setting [4]), the EC99 was in the range of 0.3 to 3.3 µM. Also, in assay [2] (setting [5]), the EC50 was under 300 nM.

Take `CC(C)(C)[C@@H](CC(O)C(F)(F)F)Nc1nc(-c2c[nH]c3ncc(F)cc23)ncc1F` (stereo partly drawn) [Compound 67, (4R)-1,1,1-trifluoro-4-((5-fluoro-2-(5-fluoro-1H-pyrrolo[2,3-b]pyridin-3-yl)pyrimidin-4-yl)amino)-5,5-dimethylhexan-2-ol]: in assay [1] (setting [6]), the IC50 was under 300 nM. Besides, the EC50 in assay [2] (setting [7]) is under 300 nM.

With `CC(C)(C)[C@@H](Cn1cc(CO)nn1)Nc1nc(-c2c[nH]c3ncc(F)cc23)ncc1F` [Compound 68, (S)-(1-(2-((5-fluoro-2-(5-fluoro-1H-pyrrolo[2,3-b]pyridin-3-yl)pyrimidin-4-yl)amino)-3,3-dimethylbutyl)-1H-1,2,3-triazol-4-yl)methanol], the IC50 in assay [1] (setting [3]) fell in the range of 300 to 3300 nM. The EC99 in assay [2] (setting [4]) is 0.3 to 3.3 µM. For the same compound, the EC50 in assay [2] (setting [5]) was under 300 nM.

With `CC(C)(C)[C@@H](CCP(=O)(O)O)Nc1nc(-c2c[nH]c3ncc(F)cc23)ncc1F` [Compound 69, (R)-(3-((5-fluoro-2-(5-fluoro-1H-pyrrolo[2,3-b]pyridin-3-yl)pyrimidin-4-yl)amino)-4,4-dimethylpentyl)phosphonic acid], the IC50 in assay [1] (setting [3]) is 300 to 3300 nM; in assay [1] (Influenza A virus, PR/8, MDCK, exemplary data, MDCK cell protection, read-out: IC50) it was 2310 nM. The EC99 in assay [2] (setting [4]) was over 3.3 µM; in assay [2] (exemplary data, bDNA), 8.4 µM. Moreover, the concentration giving a half-maximal response (EC50) was 300 to 3300 nM in assay [2] (setting [5]) and 800 nM in assay [2] (Influenza A virus, PR/8, exemplary data, bDNA, read-out: EC50).

For the compound `CC(C)(C)[C@@H](CC(O)CO)Nc1nc(-c2c[nH]c3ncc(F)cc23)ncc1F` (stereo partly drawn) [Compound 70, (4R)-4-((5-fluoro-2-(5-fluoro-1H-pyrrolo[2,3-b]pyridin-3-yl)pyrimidin-4-yl)amino)-5,5-dimethylhexane-1,2-diol], the IC50 in assay [1] (setting [3]) was under 300 nM. In addition, in assay [2] (setting [4]), the 99% effect concentration (EC99) was 0.3 to 3.3 µM. For the same compound, the concentration for a half-maximal effect (EC50) in assay [2] (setting [5]) is under 300 nM.

Take `CC(C)(C)[C@@H](CC(O)CO)Nc1nc(-c2c[nH]c3ncc(F)cc23)ncc1F` (stereo partly drawn) [Compound 71, (4R)-4-((5-fluoro-2-(5-fluoro-1H-pyrrolo[2,3-b]pyridin-3-yl)pyrimidin-4-yl)amino)-5,5-dimethylhexane-1,2-diol]: the concentration for half-maximal inhibition (IC50) in assay [1] (setting [6]) was under 300 nM. The “bDNA EC99 (uM)” value in assay [2] (Table 1, mean all, class symbol) was “A (EC99 (mean all)<0.3 μM)”. For the same compound, the EC50 in assay [2] (setting [7]) was under 300 nM.

In the case of `CC(O)C[C@@H](Nc1nc(-c2c[nH]c3ncc(F)cc23)ncc1F)C(C)(C)C` (stereo partly drawn) [Compound 73, (4R)-4-((5-Fluoro-2-(5-fluoro-1H-pyrrolo[2,3-b]pyridin-3-yl)pyrimidin-4-yl)amino)-5,5-dimethylhexan-2-ol], the IC50 in assay [1] (setting [3]) is over 3300 nM. Also, the EC50 in assay [2] (setting [5]) lay in the range of 300 to 3300 nM.

`CC1(C(CC(=O)O)Nc2nc(-c3c[nH]c4ncc(F)cc34)ncc2F)CC1` (stereo not shown) [Compound 74]: the IC50 in assay [1] (setting [3]) lay in the range of 300 to 3300 nM. In addition, the EC99 in assay [2] (setting [4]) is 0.3 to 3.3 µM. Moreover, the EC50 in assay [2] (setting [5]) was 300 to 3300 nM.
